Source: US5002943A, “Condensed diazepinones, processes for preparing them and pharmaceutical compositions containing these compounds” (priority 1988, dated 1991)
Structures can show the parent of a compound that is named as a salt. Where two headings read alike, the source gives them in different places.

Assays:
M2 = biological target: T1, M2 (Rattus norvegicus, UniProt P10980); assay: M1/M2 selectivity in the rat: inhibition of vagal bradycardia (M2); format: in vivo, male THOM rats; details: iv, 5 min
T1 construct: The bradycardia caused by vagus stimulation; from tissue; host or cells: heart of the living rat (male THOM rats, in vivo)
T1 sequence (P10980 1-466): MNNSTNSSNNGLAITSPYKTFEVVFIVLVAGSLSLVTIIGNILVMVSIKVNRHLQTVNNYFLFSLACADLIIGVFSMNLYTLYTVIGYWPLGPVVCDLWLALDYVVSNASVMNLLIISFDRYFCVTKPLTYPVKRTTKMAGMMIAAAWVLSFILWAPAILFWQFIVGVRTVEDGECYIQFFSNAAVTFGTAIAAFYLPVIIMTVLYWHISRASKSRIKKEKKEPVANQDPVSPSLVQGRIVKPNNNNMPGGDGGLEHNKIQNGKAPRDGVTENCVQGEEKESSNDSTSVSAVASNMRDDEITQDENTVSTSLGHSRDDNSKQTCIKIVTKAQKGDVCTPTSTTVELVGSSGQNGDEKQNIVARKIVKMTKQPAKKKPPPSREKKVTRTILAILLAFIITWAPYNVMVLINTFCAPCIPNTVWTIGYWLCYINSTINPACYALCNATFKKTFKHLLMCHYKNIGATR
Description: (§1) B. Investigation of functional selectivity of the antimuscarinic effect
(§2) Substances with antimuscarinic properties inhibit the effects of agonists supplied exogenically or of acetylcholine, which is released from cholinergic nerve endings. The following is a description of some methods that are suitable for the detection of cardioselective antimuscarinic agents.
(§3) The objective of the methods was to confirm the selectivity of the antimuscarinic effect. Those substances which had been selected on the basis of "in vitro" tests were tested for their
(§4) 1. M1 /M2 selectivity in the rat,
(§5) 3. Inhibition of the acetylcholine effect on the bladder, bronchi and heart rate in the guinea pig. 1. M1 /M2 SELECTIVITY IN THE RAT
The method used was described by Hammer and Giachetti (Life Sciences 31, 2991-2998 (1982)). 5 minutes after the intravenous injection of increasing doses of the substance, either the right vagus was electrically stimulated (frequency: 25 Hz; pulse width: 2ms; duration of stimulus: 30s; voltage: supramaximal) or 0.3 mg/kg of McN-A-343 were intravenously injected into male THOM rats. The bradycardia caused by vagus stimulation and the rise in blood pressure caused by McN-A-343 were determined. The dosage of the substances which reduced either the vagal bradycardia (M2) or the rise in blood pressure (M1) by 50% was determined graphically. For the results see Table II.

M1 = biological target: T2, M1 (Rattus norvegicus, UniProt P08482); assay: M1/M2 selectivity in the rat: inhibition of McN-A-343-induced rise in blood pressure (M1); format: in vivo, male THOM rats; details: iv, 5 min
T2 construct: from tissue; host or cells: living rat (male THOM rats, in vivo); sympathetic ganglia by own knowledge
T2 sequence (P08482 1-460): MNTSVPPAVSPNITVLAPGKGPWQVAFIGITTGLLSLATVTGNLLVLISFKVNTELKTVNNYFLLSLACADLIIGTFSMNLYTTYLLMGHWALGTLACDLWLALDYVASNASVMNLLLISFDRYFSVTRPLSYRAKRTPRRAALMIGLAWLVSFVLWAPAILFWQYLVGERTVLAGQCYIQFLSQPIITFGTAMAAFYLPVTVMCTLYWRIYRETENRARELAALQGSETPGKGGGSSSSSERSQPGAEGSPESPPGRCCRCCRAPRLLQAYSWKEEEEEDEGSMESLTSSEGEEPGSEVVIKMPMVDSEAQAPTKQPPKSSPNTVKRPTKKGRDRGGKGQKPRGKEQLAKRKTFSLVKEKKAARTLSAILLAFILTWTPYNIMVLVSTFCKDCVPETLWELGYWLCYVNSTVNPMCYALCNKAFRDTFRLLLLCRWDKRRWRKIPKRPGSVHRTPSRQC
Description: as §1, §2, §3, §4, §5
The dosage of the substances which reduced either the vagal bradycardia (M2) or the rise in blood pressure (M1) by 50% was determined graphically. For the results see Table II.

secretion of saliva = assay: Salivation-inhibiting effect in the rat (pilocarpine-induced saliva secretion); format: in vivo, male THOM rats; details: iv; urethane-anaesthetised rat; i.v.; pilocarpine 2 mg/kg s.c.; read-out: -log ED50, Salivation (converted)
Procedure: as §3
2. Salivation-inhibiting effect on the rat and
2. SALIVATION-INHIBITING EFFECT IN THE RAT
The secretion of saliva was initiated by subcutaneous administration of 2 mg/kg of pilocarpine. The saliva was absorbed with blotting paper and the surface area covered was measured every 5 minutes by planimetry. The dosage of the substance which reduced the volume of saliva by 50% was determined graphically. For the results see Table II.

[1] = biological target: muscarinic receptors (cerebral cortex); assay: Muscarinic receptor binding, cerebral cortex (displacement of 3H-N-methylscopolamine); design: species or system male Sprague-Dawley rats; details: cerebral cortex homogenate; 0.3 nanomolar 3H-NMS; 30 C; 45 minutes; pH 7.4; read-out: Receptor Binding Tests IC50, Cortex
Procedure: (§6) A. Studies of binding to muscarinic receptors:
(§7) In vitro measurement of the IC50 value
(§8) The organs were donated by male Sprague-Dawley rats weighing 180-220 g. After the heart and submandibular gland and cerebral cortex had been removed, all other steps were carried out in ice cold Hepes HCl buffer (pH 7.4; 100 millimolar NaCl, 10 millimolar MgClz). The whole heart was cut up with scissors. All the organs were then homogenised in a Potter apparatus.
(§9) For the binding test the homogenised organs were diluted as follows:
The homogenised organs were incubated at a certain concentration of the radioligand and at a series of concentrations of the non-radioactive test substances in an Eppendorf centrifuge tube at 30 C. Incubation lasted 45 minutes. The radioligand used was 0.3 nanomolar 3H-N-methylscopolamine (^3 H-NMS). Incubation was ended by the addition of ice cold buffer followed by vacuum filtration. The filters were rinsed with cold buffer and their radioactivity was determined. It represents the sum of specific and non-specific binding of ^3 H-NMS. The proportion of non-specific binding was defined as the radioactivity which was bound in the presence of 1 micromolar quinuclidinylbenzylate. Each measurement was taken four times. The IC50 values of the non-labelled test substances were determined graphically. […]

[2] = biological target: T3, muscarinic receptors (heart) (Rattus norvegicus, UniProt P10980); assay: biochemical; design: species or system male Sprague-Dawley rats; details: whole heart homogenate; 0.3 nanomolar 3H-NMS; 30 C; 45 minutes; pH 7.4; read-out: Receptor Binding Tests IC50, Heart
T3 sequence (P10980 1-466): T1 sequence (P10980 1-466)

[3] = biological target: muscarinic receptors (submandibular gland) (Rattus norvegicus, UniProt P08483); assay: biochemical; design: species or system male Sprague-Dawley rats; details: submandibular gland homogenate; 0.3 nanomolar 3H-NMS; 30 C; 45 minutes; pH 7.4; read-out: Receptor Binding Tests IC50, Submandibular gland
Sequence of muscarinic receptors (submandibular gland) (P08483 whole entry): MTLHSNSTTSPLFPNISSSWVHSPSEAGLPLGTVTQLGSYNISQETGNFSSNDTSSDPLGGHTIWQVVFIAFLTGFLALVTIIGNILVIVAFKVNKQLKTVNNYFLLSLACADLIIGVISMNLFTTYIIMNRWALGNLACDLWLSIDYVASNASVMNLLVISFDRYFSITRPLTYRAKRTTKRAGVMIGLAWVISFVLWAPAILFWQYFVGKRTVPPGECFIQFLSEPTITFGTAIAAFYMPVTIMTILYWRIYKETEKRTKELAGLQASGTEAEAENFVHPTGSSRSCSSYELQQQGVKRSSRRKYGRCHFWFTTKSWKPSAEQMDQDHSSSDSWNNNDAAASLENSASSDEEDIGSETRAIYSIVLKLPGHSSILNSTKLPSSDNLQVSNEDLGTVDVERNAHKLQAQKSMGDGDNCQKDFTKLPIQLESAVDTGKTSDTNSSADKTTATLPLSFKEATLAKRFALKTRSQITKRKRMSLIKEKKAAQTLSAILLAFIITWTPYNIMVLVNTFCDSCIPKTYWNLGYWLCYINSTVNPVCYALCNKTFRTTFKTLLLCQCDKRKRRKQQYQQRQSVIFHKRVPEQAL
Procedure: as §6, §7, §8, §9
Submandibular gland 1:400
The homogenised organs were incubated at a certain concentration of the radioligand and at a series of concentrations of the non-radioactive test substances in an Eppendorf centrifuge tube at 30 C. Incubation lasted 45 minutes. The radioligand used was 0.3 nanomolar 3H-N-methylscopolamine (^3 H-NMS). Incubation was ended by the addition of ice cold buffer followed by vacuum filtration. The filters were rinsed with cold buffer and their radioactivity was determined. It represents the sum of specific and non-specific binding of ^3 H-NMS. The proportion of non-specific binding was defined as the radioactivity which was bound in the presence of 1 micromolar quinuclidinylbenzylate. Each measurement was taken four times. The IC50 values of the non-labelled test substances were determined graphically. They represent that concentration of test substance at which the specific binding of 3H-NMS to the muscarinic receptors in the various organs was inhibited by 50%.

[4] = system: acetylcholine activity on heart rate; assay: Inhibition of the effect of acetylcholine on heart rate in guinea pigs; format: in vivo, guinea pig; details: Cavia porcellus, 5 min
Procedure: (§10) The objective of the methods was to confirm the selectivity of the antimuscarinic effect. Those substances which had been selected on the basis of "in vitro" tests were tested for their 3. […] M1 /M2 SELECTIVITY IN THE RAT 3. INHIBITION OF THE EFFECT OF ACETYLCHOLINE ON THE BLADDER, BRONCHI AND HEART RATE IN GUINEA PIGS 5 minutes after the administration of the test substance, 10 microgram/kg of acetylcholine were simultaneously injected intravenously and intra-arterially into anaesthetised guinea pigs. The heart rate was recorded directly by extracorporeal derivation of the ECG, the expiration resistance according to Konzett-Ro ler and contraction of the exposed bladder. In order to determine the inhibition of the acetylcholine activity on the organs under investigation, dosage/activity curves were recorded and from them -log ED50 values were determined.

[5] = system: acetylcholine activity on the bronchi; assay: Inhibition of the effect of acetylcholine on the bronchi in guinea pigs; format: in vivo; details: Cavia porcellus, 5 min; anaesthetised guinea pig; 5 minutes after test substance; 10 microgram/kg acetylcholine; expiration resistance; read-out: -log ED50, Bronchi (converted)
Procedure: as §10

[6] = system: acetylcholine activity on the bladder; assay: Inhibition of the effect of acetylcholine on the bladder in guinea pigs; format: in vivo, guinea pig; details: Cavia porcellus, 5 min
Procedure: as §10

[7] = i.v., 5 minutes after injection, vagus stimulation 25 Hz, read-out: -log ED50, Heart (vagal bradycardia, M2) (converted)
[8] = i.v., 5 minutes after injection, 0.3 mg/kg McN-A-343 i.v., read-out: -log ED50, Blood pressure (McN-A-343 pressor response, M1) (converted)
[9] = anaesthetised guinea pig, 5 minutes after test substance, 10 microgram/kg acetylcholine, read-out: -log ED50, Heart (converted)
[10] = anaesthetised guinea pig, 5 minutes after test substance, 10 microgram/kg acetylcholine, contraction of exposed bladder, read-out: -log ED50, Bladder (converted)

Row | ED50 (M2; [7]) [µmol/kg] | IC50 [1] [nM] | IC50 [2] [nM] | IC50 [3] [nM] | Compound | ED50 (M1; [8]) [µmol/kg] | ED50 (secretion of saliva) [µmol/kg] | ED50 [4, 9] [µmol/kg] | ED50 [5] [µmol/kg] | ED50 [6, 10] [µmol/kg] | ED50 (M2; read-out: -log ED50, Heart (vagal bradycardia, M2)) [µmol/kg] | ED50 (M1; read-out: -log ED50, Blood pressure (McN-A-343 pressor response, M1)) [µmol/kg] | ED50 ([4]; read-out: -log ED50, Heart) [µmol/kg] | ED50 ([6]; read-out: -log ED50, Bladder) [µmol/kg]
1 | 0.38 | – | – | – | CCN(CC)CC1CCCCN1CC(=O)N1c2ccccc2C(=O)Nc2cccnc21 (stereo not drawn) [Substance D, 11-[[2-[(diethylamino)methyl]-1-piperidinyl]acetyl]-5,11-dihydro-6H-pyrido[2,3-b][1,4]benzodiazepin-6-one] | 2.34 | 10 | – | – | – | – | – | – | –
2 | – | 8 | 3 | 20 | CN(CCC1CCCN1C)CC(=O)N1c2ccccc2NC(=O)c2ccccc21 (stereo not drawn) [Substance C, 5,10-dihydro-5-[[[2-(1-methyl-2-pyrrolidinyl)-ethyl]methylamino]acetyl]-11H-dibenzo[b,e][1,4]-diazepin-11-one hydrochloride] | – | – | 0.0288 | 0.0295 | 0.234 | – | – | – | –
3 | – | – | – | – | CN1C2CCC1CC(OC(=O)C(CO)c1ccccc1)C2 (stereo not drawn) [Substance F, atropine, reference compound] | – | – | – | – | – | 0.0115 | 0.0457 | 0.02 | 0.0933
4 | 0.0123 | – | 9 | 80 | CN(CCC1CCCN1C)CC(=O)N1c2ccccc2C(=O)Nc2cccnc21 (stereo not drawn) [Substance A, hydrochloride] | 0.0871 | 0.158 | 0.02 | 0.0251 | 0.141 | – | – | – | –
5 | – | 70 | 10 | 100 | CCN(CCC1CCCN1C)CC(=O)N1c2cc(Cl)ccc2C(=O)Nc2cccnc21 (stereo not drawn) [Substance B, 9-chloro-5,11-dihydro-11[[[2-(1-methyl-2-pyrrolidinyl)ethyl]ethylamino]acetyl]-6H-pyrido-[2,3-b][1,4]benzodiazepin-6-one] | – | – | 0.1 | 0.191 | 0.832 | – | – | – | –
